From patent US20240124528A1, “ANTAGONIST OF INTERLEUKIN-17B RECEPTOR (IL-17RB) AND USE THEREOF” (Academia Sinica, priority 2020, published 2024)
“Also recorded” adds a separate entry of the source.

Experiments:
Type in all cases: cell-based, human
[1] = tested on: MLKs; assay: Immunoblotting of IL-17B-induced phosphorylation after CEP-1347 pretreatment; settings: CEP-1347 200 nM pretreatment, then 50 ng/ml rIL-17B 30 mins; AsPC1, BxPC3, MB361, MB468
Procedure: (§1) FIGS. 15A to 15D include charts showing that CEP-1347 inhibits IL-17RB Y447 phosphorylation, ERK1/2 phosphorylation, and aggressiveness of both pancreatic and breast cancer cells. Pancreatic cancer cells (AsPC1 and BxPC3) and breast cancer cells (MB361 and MB468) were transduced with lentiviral shLacZ (control) and lentiviral shMLK4, separately. In comparison to MLK4-knockdown cells, shLacZ-transduced cancer cells were pretreated with CEP-1347 (200 nM), a non-selective inhibitor of MLKs, before adding 50 ng/ml rIL-17B in serum-free conditions for 30 mins. The cell lysates were immunoblotted directly with the indicated antibodies (FIG. 15A). The same cells were measured by RT-qPCR for the cytokine gene expression (n=3) (FIG. 15B), for SACF assay (n=4) (FIG. 15C), and for invasion assay (n=4) (FIG. 15D). All the data are mean±s.d. *P<0.05, **P<0.01 by two-tailed Student's t-test.
Immunoblotting analysis was performed after proteins were separated by gradient SDS-PAGE (HR gradient gel solution, TFUGG420, TOOLS) and transferred to PVDF membrane, with overnight incubation with diluted primary antibody followed by diluted horseradish peroxidase-conjugated anti-rabbit, anti-mouse or anti-goat antibody (Jackson ImmunoResearch) as described (48-50). […] Optical density was determined using the National Institutes of Health ImageJ program.

[2] = tested on: pancreatic cancer cells (AsPC1 and BxPC3) and breast cancer cells (MB361 and MB468); assay: Invasion assay with CEP-1347
Procedure: as §1
For invasion assay, about 10^4 cells were seeded in the top chamber with Matrigel-coated membrane (24-well BD Falcon HTS Fluoro Block insert; pore size, 8 μm; BD Biosciences) in serum-free media containing rIL-17B, DMSO, or CEP-1347. Medium supplemented with 10% serum was used as a chemoattractant in the lower chamber. After 24- or 48 hrs incubation, the invading cells were fixed with methanol, stained with 4,6-diamidino-2-phenylindole (DAPI) and counted by fluorescence microscopy.

[3] = tested on: pancreatic cancer cells (AsPC1 and BxPC3) and breast cancer cells (MB361 and MB468); assay: RT-qPCR of cytokine gene expression after CEP-1347; settings: CEP-1347 200 nM
Procedure: as §1, with “All the data are mean±s.d. *P<0.05, **P<0.01 by two-tailed Student's t-test.” left out
Total RNA from cultured cells and tumor tissue was isolated using Trizol reagent (Thermo Fisher Scientific) and reversely transcribed with Transcriptor First Strand cDNA Synthesis Kit (Roche Life Science) for gene expression analysis according to manufacturer's instructions. Quantitative real-time RT-PCR assay was run on the StepOnePlus system (Applied Biosystems) using KAPA SYBR FAST qPCR Kit (Kapa Biosystems) according to manufacturer's instructions, and data was analyzed by StepOne Software v2.2.2. β-actin mRNA was used as an internal control. […]

[4] = tested on: pancreatic cancer cells (AsPC1 and BxPC3) and breast cancer cells (MB361 and MB468); assay: SACF assay with CEP-1347
Procedure: as §1
Soft agar colony formation assay was performed as described (7). Briefly, 250010000 cells were seeded in a layer of 0.35% agar/complete growth medium over a layer of 0.5% agar/complete growth medium in a 12-well plate. Cell medium containing the indicated concentration of rIL-17B (R&D), DMSO (Sigma-Aldrich), or CEP-1347 (Tocris Bioscience) was replenished every three days. […] Crystal violet-stained colonies greater than 50 μm in size were counted and analyzed objectively by light microscopy.

`CCSCc1ccc2c(c1)c1c3c(c4c5cc(CSCC)ccc5n5c4c1n2[C@H]1C[C@](O)(C(=O)OC)[C@]5(C)O1)CNC3=O` [CEP-1347] was tested, and the ERK1/2 phosphorylation [1] was “abrogated; also recorded: inhibits”, the “IL-17RB (Y447) phosphorylation” value [1] was “abrogated; also recorded: inhibits” and the “invasion properties of the cancer cells” value [2] was “abrogated”. For the same compound, the cytokine gene expressions [3] was “abrogated”, the “aggressiveness of both pancreatic and breast cancer cells” value ([4]; CEP-1347 200 nM, SACF and invasion assays) was “inhibits” and the colony formation ([4]; CEP-1347, AsPC1, BxPC3, MB361, MB468) was “abrogated”.
